Measurements: US20090155345A1, “METHODS FOR AFFECTING LIPOSOME COMPOSITION ULTRASOUND IRRADIATION” (BEN GURION UNIVERSITY OF THE NEGEV RESEARCH AND DEVELOPMENT …, priority 2005, published 2009)
Counter-ions that a name gives are not always drawn.

What was measured:
[1] = cited from earlier work
[2] = Chemical integrity of LFUS-irradiated drugs and lipids (HPLC, NMR, TLC); type: physicochemical; conditions: 20 kHz, 3.3 W/cm^2, 30 to 180 s; HPLC (doxorubicin, MPS), NMR (cisplatin)
Method: Thin layer gel chromatography (TLC) was used to determine if any chemical changes were induced in the liposome lipids by exposure to ultrasonic irradiation.
MPS concentration and chemical integrity were determined using HPLC (Hewlett Packard Liquid Chromatograph 1090). ChemStation software (Hewlett Packard) controlled all modules and was used for analysis of the chromatography data. The analytical column used was a C18 5-micron Econosphere, length 150 mm, inner diameter 4.6 mm (Alltech, Carnforth, UK). Sample injection volume was 20 μL. Eluent was monitored at a wavelength of 245 nm with a 10 nm bandwidth.
Experiments were performed on an INOVA 500-MHz spectrometer (Varian, Palo Alto, Calif.) using standard pulse sequences. The Pt chemical shifts were assigned relative to the external reference signal of K2PtCl4, set at −1,624 ppm.

SMILES | pKa [1] | chemical changes of drug after LFUS [2]
C[C@H]1C[C@@H]2[C@H]([C@@H](O)C[C@@]3(C)[C@H]2CC[C@]3(O)C(=O)COC(=O)CCC(=O)O)[C@@]2(C)C=CC(=O)C=C12 [MPS, Methylprednisolone hemisuccinate sodium salt] | 4.65 | –
N.N.[Cl][Pt][Cl] [cisplatin, Cisplatin] | – | does not induce any chemical changes
COc1cccc2c1C(=O)c1c(O)c3c(c(O)c1C2=O)C[C@@](O)(C(=O)CO)C[C@@H]3O[C@H]1C[C@H](N)[C@H](O)[C@H](C)O1 [doxorubicin, Doxorubicin-HCl] | – | does not induce any chemical changes
